In ChEMBL document CHEMBL1201862, “PubChem BioAssay data set” (2004) one finds IC50 and EC50 data, which are given here for 3 molecules.

Assay [1] addresses T1, Cannabinoid receptor 2 (Homo sapiens, UniProt P34972). The assay is described as follows: SAR analysis of antagonists of the Cannabinoid Receptor 2 using an Image-Based Assay - Set 2. [Related pubchem assays (depositor defined):AID1961, AID1965]. In kind it is functional.
Assay [2] has as its target G-protein coupled receptor 55 (Homo sapiens, UniProt Q9Y2T6). The assay is described as follows: SAR analysis of selective Agonists of GPR55 using an Image-Based Assay - Set 2. [Related pubchem assays (depositor defined):AID1961, AID1965]. Type of assay: functional.
Assay [3] addresses T1, Cannabinoid receptor 2. The assay is described as follows: SAR analysis of agonists of the Cannabinoid Receptor 2 using an Image-Based Assay - Set 2. [Related pubchem assays (depositor defined):AID1961, AID1965]. Type of assay: functional.
For assay [4], the target named is T2, G-protein coupled receptor 35 (Homo sapiens, UniProt Q9HC97). The assay is described as follows: SAR analysis of Agonists of the GPR35 Receptor using an Image-Based Assay - Set 3. [Related pubchem assays (depositor defined):AID1961, AID1965]. In kind it is functional.
The target in assay [5] is T3, Cannabinoid receptor 1 (Homo sapiens, UniProt P21554). Description: SAR analysis of antagonists of the Cannabinoid Receptor 1 using an Image-Based Assay - Set 3. [Related pubchem assays (depositor defined):AID1961, AID1965]. In kind it is functional.
In assay [6] the target is T3, Cannabinoid receptor 1. The assay is described as follows: SAR analysis of agonists of the Cannabinoid Receptor 1 using an Image-Based Assay - Set 3. [Related pubchem assays (depositor defined):AID1961, AID1965]. Type of assay: functional.
Assay [7] has as its target T2, G-protein coupled receptor 35. The assay is described as follows: SAR analysis of Antagonists of the GPR35 Receptor using an Image-Based Assay - Set 4. [Related pubchem assays (depositor defined):[…]]. Type of assay: functional.
The target of assay [8] is T4, Tyrosine-protein phosphatase non-receptor type 22 (Homo sapiens, UniProt Q9Y2R2).
T4 sequence (Q9Y2R2 whole entry): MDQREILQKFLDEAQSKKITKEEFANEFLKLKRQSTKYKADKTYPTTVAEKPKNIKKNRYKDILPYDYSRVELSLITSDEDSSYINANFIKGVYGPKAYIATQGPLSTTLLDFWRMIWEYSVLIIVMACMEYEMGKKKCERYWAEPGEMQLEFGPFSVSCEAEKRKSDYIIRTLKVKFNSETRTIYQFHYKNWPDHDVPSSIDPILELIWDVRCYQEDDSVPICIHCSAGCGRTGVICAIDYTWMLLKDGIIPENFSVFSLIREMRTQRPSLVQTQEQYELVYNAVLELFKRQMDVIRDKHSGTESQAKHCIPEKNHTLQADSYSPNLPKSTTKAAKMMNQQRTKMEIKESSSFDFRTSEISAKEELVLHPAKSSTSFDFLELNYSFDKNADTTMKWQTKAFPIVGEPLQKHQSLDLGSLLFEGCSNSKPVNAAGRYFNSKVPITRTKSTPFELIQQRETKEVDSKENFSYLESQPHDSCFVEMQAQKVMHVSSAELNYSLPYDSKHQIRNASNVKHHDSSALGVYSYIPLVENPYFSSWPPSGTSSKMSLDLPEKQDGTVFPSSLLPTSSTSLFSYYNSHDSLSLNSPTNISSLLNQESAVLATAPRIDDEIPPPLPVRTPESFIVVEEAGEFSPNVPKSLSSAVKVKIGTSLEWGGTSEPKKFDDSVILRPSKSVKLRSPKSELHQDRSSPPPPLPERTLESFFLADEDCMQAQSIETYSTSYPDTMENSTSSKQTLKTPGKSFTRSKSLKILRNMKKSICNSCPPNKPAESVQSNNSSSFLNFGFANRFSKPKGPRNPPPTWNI
Description: SAR LYP1 Fluorescent Assay using pCAP substrate for In Vitro dose response studies - Set 2. [Related pubchem assays (depositor defined):AID1779, AID1784, AID2135, AID449727]. Type of assay: functional.

The target in assay [9] is Tyrosine-protein phosphatase non-receptor type 12 (Homo sapiens, UniProt Q05209). Description: SAR Selectivity Analysis of small molecule inhibitors of PEST using pCAP in a fluorescence assay. [Related pubchem assays (depositor defined):AID1779, AID1784, AID2135]. In kind it is functional.
Assay [10] concerns the target T4, Tyrosine-protein phosphatase non-receptor type 22. The assay is described as follows: SAR LYP1 Fluorescent Assay using OMFP substrate for In Vitro dose response studies - Set 3. [Related pubchem assays (depositor defined):AID1779, AID1784, AID2140, AID2686]. Type of assay: functional.
In assay [11] the target is T5, Tyrosine-protein phosphatase non-receptor type 7 (Homo sapiens, UniProt P35236).
T5 sequence (P35236 whole entry): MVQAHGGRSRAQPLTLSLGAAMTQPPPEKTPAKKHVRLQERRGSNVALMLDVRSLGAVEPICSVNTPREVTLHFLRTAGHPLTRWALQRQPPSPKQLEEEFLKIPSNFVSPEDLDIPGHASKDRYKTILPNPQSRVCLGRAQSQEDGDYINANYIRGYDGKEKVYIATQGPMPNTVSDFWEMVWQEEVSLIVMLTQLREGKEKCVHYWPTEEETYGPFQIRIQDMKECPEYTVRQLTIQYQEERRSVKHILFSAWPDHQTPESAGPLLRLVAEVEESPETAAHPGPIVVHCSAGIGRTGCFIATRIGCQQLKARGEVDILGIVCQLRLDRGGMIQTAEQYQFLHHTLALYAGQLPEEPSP
The assay is described as follows: HePTP (PTPN7) phosphatase inhibitor potency, SAR follow-up, biochemical, set 2 (AID 449736). In kind it is functional.

The target in assay [12] is T4, Tyrosine-protein phosphatase non-receptor type 22. Description: LYP (PTPN22) phosphatase inhibitor potency, SAR follow-up, biochemical, pCAP fluorogenic substrate, fluorescence, set 3 (AID 449727). Type of assay: functional.
Assay [13] has the same target. The assay is described as follows: PubChem AID 2135.
Assay [14] has the same target. The assay is described as follows: SAR LYP1 Fluorescent Assay using OMFP substrate for In Vitro dose response studies - Set 2. [Related pubchem assays (depositor defined):AID1779, AID1784, AID2140, AID449726, AID488869]. In kind it is functional.
For assay [15], the target named is T6, Voltage-dependent T-type calcium channel subunit alpha-1H (Homo sapiens, UniProt O95180). Description: Inhibitors of T-Type Calcium Channels (Cav3.2 HEK whole cell CRC). [Related pubchem assays (depositor defined):AID449739, AID463087, AID489005, AID493021, AID493022, AID493023, AID493041, AID504579, AID504584]. Type of assay: functional, cell-based, HEK293.

For assay [16], the target named is T6, Voltage-dependent T-type calcium channel subunit alpha-1H. Description: Cav3.2 T-type channel inhibitors, synthesized analogs, SAR follow-up, cell-based, synthetic library set 2, HEK293 HH8, Fluo-4 (AID 493023). Type of assay: functional.

Activity calls are given as the source filed them.

T3 sequence (P21554 whole entry): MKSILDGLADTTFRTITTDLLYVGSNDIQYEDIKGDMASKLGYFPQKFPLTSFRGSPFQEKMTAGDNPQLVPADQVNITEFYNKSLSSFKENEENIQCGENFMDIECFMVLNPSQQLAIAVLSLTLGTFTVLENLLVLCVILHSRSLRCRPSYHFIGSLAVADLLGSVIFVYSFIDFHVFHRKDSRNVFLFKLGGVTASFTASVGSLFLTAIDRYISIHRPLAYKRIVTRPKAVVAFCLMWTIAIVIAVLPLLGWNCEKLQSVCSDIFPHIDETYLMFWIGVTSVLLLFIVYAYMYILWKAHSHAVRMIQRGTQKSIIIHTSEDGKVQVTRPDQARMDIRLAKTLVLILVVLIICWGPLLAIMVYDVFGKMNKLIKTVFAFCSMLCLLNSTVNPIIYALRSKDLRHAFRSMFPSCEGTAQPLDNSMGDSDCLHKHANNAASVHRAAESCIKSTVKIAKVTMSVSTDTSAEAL
T6 sequence (O95180 whole entry): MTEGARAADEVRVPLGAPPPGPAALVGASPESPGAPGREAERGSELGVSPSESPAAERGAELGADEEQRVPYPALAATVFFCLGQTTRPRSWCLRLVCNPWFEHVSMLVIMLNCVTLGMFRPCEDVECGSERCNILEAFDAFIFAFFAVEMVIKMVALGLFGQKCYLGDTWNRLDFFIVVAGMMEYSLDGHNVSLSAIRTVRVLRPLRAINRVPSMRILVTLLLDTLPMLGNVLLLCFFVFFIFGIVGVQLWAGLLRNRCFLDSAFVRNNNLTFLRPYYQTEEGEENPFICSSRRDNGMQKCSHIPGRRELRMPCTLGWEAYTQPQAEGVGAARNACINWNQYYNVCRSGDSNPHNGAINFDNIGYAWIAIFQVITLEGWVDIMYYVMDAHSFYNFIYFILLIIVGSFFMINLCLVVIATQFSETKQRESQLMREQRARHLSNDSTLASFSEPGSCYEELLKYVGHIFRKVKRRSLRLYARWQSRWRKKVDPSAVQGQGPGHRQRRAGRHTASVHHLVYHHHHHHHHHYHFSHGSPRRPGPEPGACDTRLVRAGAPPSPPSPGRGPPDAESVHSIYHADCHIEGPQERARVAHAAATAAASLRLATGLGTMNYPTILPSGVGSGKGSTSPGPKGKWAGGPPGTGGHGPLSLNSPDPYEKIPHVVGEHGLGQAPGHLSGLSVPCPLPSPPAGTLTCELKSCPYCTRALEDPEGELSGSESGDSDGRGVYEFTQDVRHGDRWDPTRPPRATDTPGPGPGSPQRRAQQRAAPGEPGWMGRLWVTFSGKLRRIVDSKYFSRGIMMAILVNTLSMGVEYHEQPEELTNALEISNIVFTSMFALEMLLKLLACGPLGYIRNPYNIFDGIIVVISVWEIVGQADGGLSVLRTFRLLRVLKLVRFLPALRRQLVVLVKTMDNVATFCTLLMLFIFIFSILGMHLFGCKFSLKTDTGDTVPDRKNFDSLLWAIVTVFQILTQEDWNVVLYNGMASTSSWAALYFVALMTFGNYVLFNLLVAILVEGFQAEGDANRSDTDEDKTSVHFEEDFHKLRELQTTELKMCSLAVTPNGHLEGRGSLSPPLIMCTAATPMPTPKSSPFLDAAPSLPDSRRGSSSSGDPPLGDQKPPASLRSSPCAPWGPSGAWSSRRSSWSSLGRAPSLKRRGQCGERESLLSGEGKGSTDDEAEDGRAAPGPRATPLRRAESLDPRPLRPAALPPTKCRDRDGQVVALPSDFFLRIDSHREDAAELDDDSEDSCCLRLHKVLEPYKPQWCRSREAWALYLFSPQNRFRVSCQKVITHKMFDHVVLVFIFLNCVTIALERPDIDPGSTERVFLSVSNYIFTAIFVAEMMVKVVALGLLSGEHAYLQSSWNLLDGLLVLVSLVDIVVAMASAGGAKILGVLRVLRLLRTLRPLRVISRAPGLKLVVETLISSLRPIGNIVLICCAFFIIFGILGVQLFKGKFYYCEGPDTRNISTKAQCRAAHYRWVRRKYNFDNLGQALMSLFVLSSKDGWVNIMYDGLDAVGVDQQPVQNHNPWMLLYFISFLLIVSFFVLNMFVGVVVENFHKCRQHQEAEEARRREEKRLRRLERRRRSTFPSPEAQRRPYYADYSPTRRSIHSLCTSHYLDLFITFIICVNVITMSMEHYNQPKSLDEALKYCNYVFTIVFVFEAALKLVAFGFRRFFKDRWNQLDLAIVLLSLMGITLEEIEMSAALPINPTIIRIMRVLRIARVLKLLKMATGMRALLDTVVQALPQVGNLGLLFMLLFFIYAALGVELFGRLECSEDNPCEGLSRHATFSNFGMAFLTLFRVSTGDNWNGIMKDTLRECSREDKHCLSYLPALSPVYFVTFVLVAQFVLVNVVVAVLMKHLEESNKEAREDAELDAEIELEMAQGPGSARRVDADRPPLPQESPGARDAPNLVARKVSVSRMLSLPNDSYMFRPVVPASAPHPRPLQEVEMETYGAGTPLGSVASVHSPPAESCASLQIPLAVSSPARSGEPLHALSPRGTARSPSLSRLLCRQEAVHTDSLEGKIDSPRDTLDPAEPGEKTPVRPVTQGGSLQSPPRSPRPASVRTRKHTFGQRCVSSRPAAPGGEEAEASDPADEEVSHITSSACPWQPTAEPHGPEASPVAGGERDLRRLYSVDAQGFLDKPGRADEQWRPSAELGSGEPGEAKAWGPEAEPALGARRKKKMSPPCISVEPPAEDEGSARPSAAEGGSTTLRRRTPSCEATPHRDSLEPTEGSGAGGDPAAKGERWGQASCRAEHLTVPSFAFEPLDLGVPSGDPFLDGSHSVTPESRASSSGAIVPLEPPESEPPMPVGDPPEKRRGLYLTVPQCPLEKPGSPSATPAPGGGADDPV
T2 sequence (Q9HC97 whole entry): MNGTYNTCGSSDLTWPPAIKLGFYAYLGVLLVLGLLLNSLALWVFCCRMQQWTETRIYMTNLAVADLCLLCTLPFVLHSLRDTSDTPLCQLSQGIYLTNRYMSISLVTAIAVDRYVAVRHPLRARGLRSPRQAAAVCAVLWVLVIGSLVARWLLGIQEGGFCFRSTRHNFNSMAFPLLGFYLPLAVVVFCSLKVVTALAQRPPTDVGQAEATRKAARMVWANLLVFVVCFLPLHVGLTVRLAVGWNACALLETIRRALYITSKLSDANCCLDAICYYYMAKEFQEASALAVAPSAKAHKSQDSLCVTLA
T1 sequence (P34972 whole entry): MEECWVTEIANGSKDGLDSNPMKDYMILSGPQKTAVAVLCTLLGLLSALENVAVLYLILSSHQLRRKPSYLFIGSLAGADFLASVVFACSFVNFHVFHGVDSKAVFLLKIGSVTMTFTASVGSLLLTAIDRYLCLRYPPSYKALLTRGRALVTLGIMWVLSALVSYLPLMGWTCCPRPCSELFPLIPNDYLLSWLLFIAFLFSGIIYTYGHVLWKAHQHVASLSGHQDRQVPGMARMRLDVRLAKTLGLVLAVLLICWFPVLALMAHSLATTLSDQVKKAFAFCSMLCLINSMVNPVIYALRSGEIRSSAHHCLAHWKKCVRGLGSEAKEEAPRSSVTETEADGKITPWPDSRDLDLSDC
Sequence of G-protein coupled receptor 55 (Q9Y2T6 whole entry): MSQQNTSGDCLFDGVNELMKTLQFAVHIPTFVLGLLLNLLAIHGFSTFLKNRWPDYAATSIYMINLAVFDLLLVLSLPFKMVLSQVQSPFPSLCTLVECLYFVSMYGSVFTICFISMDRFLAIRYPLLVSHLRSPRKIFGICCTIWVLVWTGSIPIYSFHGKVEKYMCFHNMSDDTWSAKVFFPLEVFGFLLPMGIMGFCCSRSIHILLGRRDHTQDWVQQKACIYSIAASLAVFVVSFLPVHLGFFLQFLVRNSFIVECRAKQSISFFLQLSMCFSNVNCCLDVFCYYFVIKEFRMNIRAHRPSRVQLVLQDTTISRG
Sequence of Tyrosine-protein phosphatase non-receptor type 12 (Q05209 whole entry): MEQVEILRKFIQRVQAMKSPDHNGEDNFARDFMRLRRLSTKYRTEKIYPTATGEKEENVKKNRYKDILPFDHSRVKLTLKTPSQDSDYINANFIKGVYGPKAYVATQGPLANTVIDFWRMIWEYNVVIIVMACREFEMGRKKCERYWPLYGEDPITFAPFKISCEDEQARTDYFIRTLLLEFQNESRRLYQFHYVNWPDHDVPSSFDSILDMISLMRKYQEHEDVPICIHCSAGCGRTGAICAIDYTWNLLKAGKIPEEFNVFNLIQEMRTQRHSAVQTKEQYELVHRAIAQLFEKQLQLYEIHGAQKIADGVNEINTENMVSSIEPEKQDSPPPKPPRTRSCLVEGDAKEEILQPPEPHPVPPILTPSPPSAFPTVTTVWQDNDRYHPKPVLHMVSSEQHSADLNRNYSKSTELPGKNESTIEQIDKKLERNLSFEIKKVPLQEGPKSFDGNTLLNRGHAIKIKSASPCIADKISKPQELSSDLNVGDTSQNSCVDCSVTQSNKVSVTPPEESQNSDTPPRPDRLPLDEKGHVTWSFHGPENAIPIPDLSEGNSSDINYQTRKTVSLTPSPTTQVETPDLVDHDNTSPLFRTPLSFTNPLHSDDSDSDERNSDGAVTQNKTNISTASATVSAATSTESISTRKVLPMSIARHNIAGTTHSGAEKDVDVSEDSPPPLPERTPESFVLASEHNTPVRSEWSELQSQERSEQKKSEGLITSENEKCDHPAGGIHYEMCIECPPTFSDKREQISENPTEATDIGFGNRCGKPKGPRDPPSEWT

As a reminder, the IC50 is the concentration needed to halve the response being measured. What is called EC50 is the concentration giving half of the maximal effect. As to `Cc1cccc(N2CCN(C(=O)c3cccc(S(=O)(=O)N(C)C)c3)CC2)c1C`, the IC50 in assay [1], in assay [5] and in [7] was > 32 µM (inactive) each time. The EC50 in assay [2] is 3.12 µM (active); in [3] it was > 32 µM (inactive); in [4], > 32 µM (inactive); in assay [6], > 32 µM (inactive).

Turning to `N#C/C(=C/c1ccc(OCc2ccc(F)cc2)c(Br)c1)c1ccc(C(=O)O)cc1`, the IC50 was 10.8 µM (active) in assay [8]; 7.56 µM (active) in assay [9]; 37 µM (active) in assay [10]; 1.36 µM (active) in assay [11]; 15.8 µM (active) in [12]; 4.37 µM (active) in assay [13]. The IC50 in assay [14] is 13.7 µM (active).

As to `CC(C)(C)CCN1C[C@@H]2[C@@H](CNC(=O)c3cc(Cl)cc(Cl)c3)[C@@H]2C1`, the IC50 in assay [15] is 0.036 µM (active). Further, the EC50 in [16] is 0.15 µM (active).
